Laboratory results from US7015306B2 (BioSynthema, Inc., priority 1999, dated 2006).
Where a SMILES comes first, the peptide text is derived from it. [ ]: non-standard residue; d: D form. The star is where a group is joined. ξ: configuration not given here. DTPA = O=C(O)CN(CCN(CC(=O)O)CC(=O)O)CCN(CC(=O)O)CC(=O)*; ξGly(4-Pip(1-amidino)) = N=C(N)N1CCC(C(N)C(=O)O)CC1; ξGly(piperidin-4-yl) = NC(C(=O)O)C1CCNCC1; Dmt = Cc1cc(O)cc(C)c1C[C@H](N)C(=O)O; Cha = N[C@@H](CC1CCCCC1)C(=O)O; Tle = CC(C)(C)[C@H](N)C(=O)O

Columns and labels:
[1] = target: T1, HT 29 colon adenocarcinoma cells (Homo sapiens, UniProt P30989); details: Ψ(CH2NH) pseudo-peptide analogs; cited from earlier work
T1 construct: host or cells: HT 29 colon adenocarcinoma cells (endogenous receptors)

[2] = target: rat brain synaptic membranes; details: read-out: Kd binding to rat brain synaptic membranes; cited from earlier work
[3] = target: human brain neurotensin membranes; details: read-out: Kd for binding on human brain neurotensin membranes; cited from earlier work
neurotensin receptors = neurotensin receptors (Homo sapiens, UniProt P30989); assay: Competitive binding assay on frozen tissue sections of receptor-positive human tumors vs radioiodinated native neurotensin; details: Table 3
Description: Frozen tissue sections from receptor-positive human tumors were used in a competitive binding assay.

[4] = In vitro serum stability assay (HPLC) of In-111 labeled peptide; assay type: in vitro ADME, human; details: human serum, 37EC, 4 hours
Summary of the method: (§1)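 The peptide was labeled with ^111InCl3 in sodium acetate/ascorbic acid buffer for 30 min at room temperature, then diluted in 5% ethanol/PBS. It was incubated at 37 °C in human serum or rat urine for set times. Filtered aliquots were analyzed by HPLC.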

[5] = In vitro urine stability assay (HPLC) of In-111 labeled peptide; assay type: in vitro ADME; details: rat urine, 37EC, 4 hours
Summary of the method: as §1

Sequence of neurotensin receptors (P30989 whole entry): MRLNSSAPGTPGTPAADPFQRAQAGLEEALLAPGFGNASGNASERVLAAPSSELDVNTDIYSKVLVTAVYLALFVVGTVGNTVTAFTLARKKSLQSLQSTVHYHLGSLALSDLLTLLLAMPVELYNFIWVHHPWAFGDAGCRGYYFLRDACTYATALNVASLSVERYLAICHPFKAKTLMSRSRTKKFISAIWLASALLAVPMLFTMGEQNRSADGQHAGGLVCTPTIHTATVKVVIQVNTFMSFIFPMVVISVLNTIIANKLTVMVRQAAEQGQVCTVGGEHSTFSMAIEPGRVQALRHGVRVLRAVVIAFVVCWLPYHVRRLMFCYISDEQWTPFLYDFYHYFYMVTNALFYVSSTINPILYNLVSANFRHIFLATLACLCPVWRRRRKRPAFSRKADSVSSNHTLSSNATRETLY
T1 sequence (P30989 whole entry): as above

Compound | Kd (neurotensin receptors) | % of peptide at 4 hours after incubation at 37EC, Serum [4] | % of peptide at 4 hours after incubation at 37EC, Urine [5] | also measured
DTPA-Lys^8(Ψ-CH2NH)Arg^9-Pro-Tyr-Ile-Leu-OH ({DTPA}-KRPYIL-OH; also: reduced CH2NH bond between Lys and Arg) [DTPA-Lys^8-Ψ(CH2NH)-Arg^8-NT(8–13)] | – | – | – | Kd [1]: 13 nM
DTPA-Lys^8-Ψ(CH2NH)-Lys^8-NT(8–13) | – | – | – | Kd [1]: 7.4 nM
monoiodo-125-[Trp^11]-neurotensin (QLYENKPRRPWIL; Neurotensin monoiodo 125I label; UniProt P30990 151-163, looked up, variant Y11W) | – | – | – | Kd [2]: 0.1 nM
monoiodo-125 derivative of natural neurotensin: monoiodo-125 derivative of natural neurotensin, radioiodo analog from the literature | – | – | – | Kd [3]: 0.26 nM
Cc1cc(O)cc(C)c1C[C@H](NC(=O)[C@@H]1CCCN1C(=O)[C@H](CCCNC(=N)N)NC(=O)C(NC(=O)[C@@H]1CCCN1C(=O)[C@@H](CCCCN)NC(=O)CN(CCN(CCN(CC(=O)O)CC(=O)O)CC(=O)O)CC(=O)O)C1CCN(C(=N)N)CC1)C(=O)N[C@H](C(=O)N[C@@H](CC(C)C)C(=O)O)C(C)(C)C (stereo partly drawn) [DTPA-DLys-Pro-Gly(PipAm)-Arg-Pro-(2,6-diMe)Tyr-tBuGly-Leu-OH] ({DTPA}-[dK]P[ξGly(4-Pip(1-amidino))]RP[Dmt][Tle]L-OH) | 45 nM | 96.6% | 99.2% | –
CC(C)C[C@H](NC(=O)[C@@H](NC(=O)[C@H](Cc1ccc(O)cc1)NC(=O)[C@@H]1CCCN1C(=O)[C@H](CCCNC(=N)N)NC(=O)C(NC(=O)[C@@H]1CCCN1C(=O)C(NC(=O)CN(CCN(CCN(CC(=O)O)CC(=O)O)CC(=O)O)CC(=O)O)C1CCNCC1)C1CCN(C(=N)N)CC1)C(C)(C)C)C(=O)O (stereo partly drawn) [Compound XI, DTPA-PipGly-Pro-Gly(PipAm)-Arg-Pro-Tyr-tBuGly-Leu-OH] ({DTPA}-[ξGly(piperidin-4-yl)]P[ξGly(4-Pip(1-amidino))]RPY[Tle]L-OH) | 3.9 nM | 95.9% | 93.6% | –
CC(C)(C)[C@H](NC(=O)[C@H](Cc1ccc(O)cc1)NC(=O)[C@@H]1CCCN1C(=O)[C@H](CCCNC(=N)N)NC(=O)C(NC(=O)[C@@H]1CCCN1C(=O)[C@@H](CCCCN)NC(=O)CN(CCN(CCN(CC(=O)O)CC(=O)O)CC(=O)O)CC(=O)O)C1CCN(C(=N)N)CC1)C(=O)N[C@@H](CC1CCCCC1)C(=O)O (stereo partly drawn) [DTPA-DLys-Pro-Gly(PipAm)-Arg-Pro-Tyr-tBuGly-Cha-OH] ({DTPA}-[dK]P[ξGly(4-Pip(1-amidino))]RPY[Tle][Cha]-OH) | 12 nM | 81.2% | 65.9% | –
